The test system of assay [1] is dogs with alveolar bone loss induced by spontaneously developed periodontal disease. The experiment in a line: Alveolar bone loss parameters by CBCT-scan and X-ray radiography in dogs with periodontal disease. The class given is in vivo. The settings on record: CTX-1 responders, Day-90 vs Day-0. How it is done: (§1) The present study was performed on 10 Beagle dogs suffering from alveolar bone loss induced by spontaneously developed periodontal disease. All dogs were treated with MIV-701 besylate salt for minimum 30 day and maximum 90 days, depending on the tolerance at intermediate visits. The product is administrated to the dog by its owner at home, once a day with a meal.
(§2) There were two treatment groups: • Group A (5 dogs) with a dose of 25 mg/kg. • Group B (5 dogs) with a dose of 50 mg/kg.
Dental imaging was performed at visit V2 (Day 0) and visit V5 (90t 3 days).
Each time a full mouth CBCT-scan was performed together with dental radiographs of selected teeth for the study. The results of these exams were recorded in IMAGING FORM by the Investigator.
Full mouth cone-beam computed tomography (NewTom, 5G XL, Bologna, Italy) was performed at visit V2 (Day 0) and visit V5 (Day 90t 3 days).
The exam was performed only in dogs recruited in Polish site. It was performed under general anesthesia of Investigator's choice and aim at alveolar bone loss measurement.
Scans were analyzed with the use of NNT viewer, software provided by the manufacturer (version: 10.1; QR SRL, Verona, Italy). At both times, the volumetric assessment of dentition was set up for the same high-resolution mode (10 × 10 cm with 0.15 mm layers). Both readings were made in the same orientations of axes and locations measuring alveolar bone loss with the use of maximum magnification (Gawro, Strøm et Nemec 2022). To evaluate the effect of the treatment on the alveolar bone loss, the following three measurements (De Faria Vasconcelos et al. 2012) were performed on the selected teeth for the study: • 1. The height of the alveolar crest (AC), measured from the cementoenamel junction (CEJ) to the upper rim of AC (Figure 12A). • 2. The depth of the defect, measured from the CEJ to the bottom of the defect (Figure 12B). • 3. The width of the defect, measured from the highest point of the AC to the dental root adjacent to the defect (Figure 12C).
Dental radiography was performed at visit V2 (Day 0) and visit V5 (Day 90t 3 days).
To evaluate the effect of the treatment on the alveolar bone loss, the following three measurements (De Faria Vasconcelos et al. 2012) were performed on the selected teeth for the study: • 1. The heigh of the alveolar crest (AC), measured from the cementoenamel junction (CEJ) to the upper rim of AC (Figure 13A). • 2. The depth of the defect, measured from the CEJ to the bottom of the defect (Figure 13B). • 3. The width of the defect, measured from the highest point of the AC to the dental root adjacent to the defect (Figure 13C).
These measurements were performed using digital ruler of the imaging software or external program (i.e., Image J) and recorded in the IMAGING FORM.

The subject of the next assay is CTX-1. The experiment in a line: Plasma CTX-1 in client-owned dogs with alveolar bone loss induced by spontaneously developed periodontal disease. The assay is classed as in vivo. As for the experimental part: as §1, §2
Administration protocol and dosage: MIV-701 besylate salt was administrated to dog once-a-day, at home with a standard meal. It was allowed to administrate the capsule(s) with a small amount of wet food/favorite snack. Opening of the capsule and spilling the product over the food was forbidden.
Treatment was administrated for 90 days. Every 30 days, based on the results of clinical exam, blood parameters and potential occurrence of adverse events suspected to be drug-related, the treatment prolongation for another 30 days, or discontinuation of treatment was decided by the Investigator.
Whole blood sample for CTX-1 analysis was collected at visit V2 (Day 0), visit V3 (Day 30+3 days), Visit V4 (Day 60t 3 days) and Visit V5 (Day 90t 3 days).
Each time, the blood sample was collected after overnight fasting, between 08:00 and 10:00 in the morning. As far as possible the blood sample was taken at the same time each visit. The night before the visit, the Investigational Product was administrated to the dog at 21:00.
The result from visit V2 (Day 0) was used as a baseline value for the efficacy evaluation criteria.
Each time 2 ml of the peripheral whole blood was collected on an anti-coagulant tube (K2EDTA) and gently inverted several times. Next, sample was centrifuged at 1500 G for 10 minutes at room temperature. The obtained plasma was divided into two Eppendorf tubes labelled as "Aliquot 1" and "Aliquot 2". Minimum 0.5 ml was placed in "Aliquot 1" while the rest of plasma was placed in "Aliquot 2". All obtained aliquots were immediately stored at - 20°C on site.
The CTX-1 analysis was performed at the end of the study by Central Laboratory. The shipment of aliquots from site to Central Laboratory was organized by the Monitor and divided into two, separated in time shipments. One with all "Aliquot 1" samples and second one with all "Aliquot 2" samples. The CTX-1 SAMPLE SHIPMENT FORM was joined to the shipment.

The structures appear in SMILES notation. Counter-ions that a name gives are not always drawn.

Turning to `CC(C)C[C@H](NC(=O)c1ccc(-c2csc(N3CCN(C)CC3)n2)cc1)C(=O)N1C[C@H](F)[C@H]2OCC(O)(O)[C@H]21` [MIV-701 besylate salt, N-[(S)-1-((3aS,6S,6aS)-6-Fluoro-S-oxo-hexahydro-furo[3,2-b]pyrrole-4-carbony)-3-methyl-butyl]-4-[2-(4-methyl-piperazin-1-yl)-thiazol-4-yl]-benzamide benzenesulphonate], the “depth of the alveolar bone defect” value in assay [1] (CBCT-images) is on record as “Only favorable trends”. Besides, the “width of the alveolar bone defect” value in assay [1] (CBCT-scan and X-ray radiography) is “significantly reduced”. Further, the “height of the alveolar crest” value in assay [1] (CBCT-scan images) is listed as “Significant improvements”; in assay [1] (X-ray radiography), “only favorable trends”. Also, in assay [1] (X-ray images), the “depth of the alveolar bone loss” value was “significant improvements”. For the same compound, the “patients with reduction in plasma CTX-1” value in the assay with CTX-1 (10 dogs, Day-90) is reported as “all but one patient experienced reduction”. In addition, the “mean % change in CTX-1” value in the assay on CTX-1 (CTX-1-responders (n=9), Day-90 vs Day-0) was -67%±6%. For the same compound, in the assay on CTX-1 (dogs with periodontal disease, 25 and 50 mg/kg/day oral, Day-30 and Day-60, no significant difference between groups), the “reduction of plasma CTX-1 vs baseline (Day-0)” value is listed as “comparable reduction”. Moreover, the “reduction of plasma CTX-1 vs pre-treatment baseline” value with CTX-1 (dogs with periodontal disease, Day-90 at 50 mg/kg/day, N=10) is recorded as “highly significant reduction”.

For the origin of these results see patent EP4613273A1, “TREATMENT OF BONE LOSS” (priority 2024, dated 2025).
